From ChEMBL document CHEMBL1144513, “Synthesis and SAR study of novel 7-(pyridinium-3-yl)-carbonyl imidazo[5,1-b]thiazol-2-yl carbapenems” (2007)
Converted amounts (≈) assume the structure as drawn.

What was measured:
Type in all cases: functional
Staphylococcus aureus [1] = test: Antibacterial activity against Staphylococcus aureus 209P JC1 by agar dilution method
Haemophilus influenzae = test: Antibacterial activity against beta-lactamase-negative ampicillin-resistant Haemophilus influenzae 870 by agar dilution method
Staphylococcus aureus [2] = test: Antibacterial activity against carbapenem and methicillin-resistant Staphylococcus aureus M126HR by agar dilution method
Escherichia coli = test: Antibacterial activity against Escherichia coli NIHJ JC2 by agar dilution method
Klebsiella pneumoniae = test: Antibacterial activity against Klebsiella pneumoniae GN69 by agar dilution method
Staphylococcus aureus [3] = test: Antibacterial activity against methicillin-resistant Staphylococcus aureus M126 by agar dilution method
Moraxella catarrhalis = test: Antibacterial activity against Moraxella catarrhalis W-0500 by agar dilution method
Streptococcus pneumoniae = test: Antibacterial activity against penicillin-resistant Streptococcus pneumoniae KK133 by agar dilution method

Compound: C[C@@H](O)[C@H]1C(=O)N2C(C(=O)O)=C(c3cn4cnc(C(=O)[C@@H]5C[C@@H](O)CN5)c4s3)[C@H](C)[C@H]12
- MIC (Staphylococcus aureus [1]): 0.016 µg/mL (≈ 0.0358 µM)
- MIC (Haemophilus influenzae): 0.125 µg/mL (≈ 0.28 µM)
- MIC (Staphylococcus aureus [2]): 4 µg/mL (≈ 8.96 µM)
- MIC (Escherichia coli): 0.063 µg/mL (≈ 0.141 µM)
- MIC (Klebsiella pneumoniae): 0.125 µg/mL (≈ 0.28 µM)
- MIC (Staphylococcus aureus [3]): 1 µg/mL (≈ 2.24 µM)
- MIC (Moraxella catarrhalis): 0.031 µg/mL (≈ 0.0694 µM)
- MIC (Streptococcus pneumoniae): 0.063 µg/mL (≈ 0.141 µM)

Compound: C[C@@H](O)[C@H]1C(=O)N2C(C(=O)[O-])=C(c3cn4cnc(C(=O)c5ccc[n+](Cc6ccccc6)c5)c4s3)[C@H](C)[C@H]12
- MIC (Staphylococcus aureus [1]): ≤ 0.008 µg/mL
- MIC (Haemophilus influenzae): 0.063 µg/mL (≈ 0.119 µM)
- MIC (Staphylococcus aureus [2]): 4 µg/mL (≈ 7.57 µM)
- MIC (Escherichia coli): 0.5 µg/mL (≈ 0.946 µM)
- MIC (Klebsiella pneumoniae): 1 µg/mL (≈ 1.89 µM)
- MIC (Staphylococcus aureus [3]): 0.5 µg/mL (≈ 0.946 µM)
- MIC (Moraxella catarrhalis): 0.063 µg/mL (≈ 0.119 µM)
- MIC (Streptococcus pneumoniae): 0.016 µg/mL (≈ 0.0303 µM)

Compound: C[C@@H](O)[C@H]1C(=O)N2C(C(=O)O)=C(c3cn4cnc(C(=O)C5CCCCN5)c4s3)[C@H](C)[C@H]12 (some centres not stated)
- MIC (Staphylococcus aureus [1]): 0.016 µg/mL (≈ 0.036 µM)
- MIC (Haemophilus influenzae): 0.25 µg/mL (≈ 0.562 µM)
- MIC (Staphylococcus aureus [2]): 4 µg/mL (≈ 9 µM)
- MIC (Escherichia coli): 0.125 µg/mL (≈ 0.281 µM)
- MIC (Klebsiella pneumoniae): 0.25 µg/mL (≈ 0.562 µM)
- MIC (Staphylococcus aureus [3]): 1 µg/mL (≈ 2.25 µM)
- MIC (Moraxella catarrhalis): 0.063 µg/mL (≈ 0.142 µM)
- MIC (Streptococcus pneumoniae): 0.125 µg/mL (≈ 0.281 µM)

Compound: C[C@@H](O)[C@H]1C(=O)N2C(C(=O)O)=C(c3cn4cnc(C(=O)c5cccnc5)c4s3)[C@H](C)[C@H]12
- MIC (Staphylococcus aureus [1]): ≤ 0.008 µg/mL
- MIC (Haemophilus influenzae): 0.031 µg/mL (≈ 0.0707 µM)
- MIC (Staphylococcus aureus [2]): 4 µg/mL (≈ 9.12 µM)
- MIC (Escherichia coli): 1 µg/mL (≈ 2.28 µM)
- MIC (Klebsiella pneumoniae): 2 µg/mL (≈ 4.56 µM)
- MIC (Staphylococcus aureus [3]): 1 µg/mL (≈ 2.28 µM)
- MIC (Moraxella catarrhalis): 0.016 µg/mL (≈ 0.0365 µM)
- MIC (Streptococcus pneumoniae): 0.031 µg/mL (≈ 0.0707 µM)

Compound: C[C@@H](O)[C@H]1C(=O)N2C(C(=O)[O-])=C(c3cn4cnc(C(=O)c5ccc[n+](C)c5)c4s3)[C@H](C)[C@H]12
- MIC (Staphylococcus aureus [1]): ≤ 0.008 µg/mL
- MIC (Haemophilus influenzae): 0.063 µg/mL (≈ 0.139 µM)
- MIC (Staphylococcus aureus [2]): 4 µg/mL (≈ 8.84 µM)
- MIC (Escherichia coli): 0.063 µg/mL (≈ 0.139 µM)
- MIC (Klebsiella pneumoniae): 0.063 µg/mL (≈ 0.139 µM)
- MIC (Staphylococcus aureus [3]): 1 µg/mL (≈ 2.21 µM)
- MIC (Moraxella catarrhalis): 0.031 µg/mL (≈ 0.0685 µM)
- MIC (Streptococcus pneumoniae): 0.031 µg/mL (≈ 0.0685 µM)

Compound: Cc1nc(C(=O)c2ccc[n+](CC(N)=O)c2)c2sc(C3=C(C(=O)[O-])N4C(=O)[C@H]([C@@H](C)O)[C@H]4[C@H]3C)cn12
- MIC (Staphylococcus aureus [1]): 0.016 µg/mL (≈ 0.0314 µM)
- MIC (Haemophilus influenzae): 0.063 µg/mL (≈ 0.124 µM)
- MIC (Staphylococcus aureus [2]): 4 µg/mL (≈ 7.85 µM)
- MIC (Escherichia coli): 0.25 µg/mL (≈ 0.491 µM)
- MIC (Klebsiella pneumoniae): 0.5 µg/mL (≈ 0.981 µM)
- MIC (Staphylococcus aureus [3]): 1 µg/mL (≈ 1.96 µM)
- MIC (Moraxella catarrhalis): 0.008 µg/mL (≈ 0.0157 µM)
- MIC (Streptococcus pneumoniae): 0.031 µg/mL (≈ 0.0608 µM)

Compound: C[C@@H](O)[C@H]1C(=O)N2C(C(=O)[O-])=C(c3cn4c(N5CCOCC5)nc(C(=O)c5ccc[n+](CC(N)=O)c5)c4s3)[C@H](C)[C@H]12
- MIC (Staphylococcus aureus [1]): 0.031 µg/mL (≈ 0.0534 µM)
- MIC (Haemophilus influenzae): 0.125 µg/mL (≈ 0.215 µM)
- MIC (Staphylococcus aureus [2]): 8 µg/mL (≈ 13.8 µM)
- MIC (Escherichia coli): 16 µg/mL (≈ 27.6 µM)
- MIC (Klebsiella pneumoniae): 16 µg/mL (≈ 27.6 µM)
- MIC (Staphylococcus aureus [3]): 2 µg/mL (≈ 3.44 µM)
- MIC (Moraxella catarrhalis): 0.063 µg/mL (≈ 0.109 µM)
- MIC (Streptococcus pneumoniae): 0.063 µg/mL (≈ 0.109 µM)

Compound: C[C@@H](O)[C@H]1C(=O)N2C(C(=O)O)=C(c3cn4cnc(C(=O)c5cncs5)c4s3)[C@H](C)[C@H]12
- MIC (Staphylococcus aureus [1]): ≤ 0.008 µg/mL
- MIC (Haemophilus influenzae): 0.063 µg/mL (≈ 0.142 µM)
- MIC (Staphylococcus aureus [2]): 4 µg/mL (≈ 9 µM)
- MIC (Escherichia coli): 1 µg/mL (≈ 2.25 µM)
- MIC (Klebsiella pneumoniae): 2 µg/mL (≈ 4.5 µM)
- MIC (Staphylococcus aureus [3]): 0.031 µg/mL (≈ 0.0697 µM)
- MIC (Moraxella catarrhalis): 0.016 µg/mL (≈ 0.036 µM)
- MIC (Streptococcus pneumoniae): 0.031 µg/mL (≈ 0.0697 µM)

Compound: CCc1nc(C(=O)c2ccc[n+](CC(N)=O)c2)c2sc(C3=C(C(=O)[O-])N4C(=O)[C@H]([C@@H](C)O)[C@H]4[C@H]3C)cn12
- MIC (Staphylococcus aureus [1]): 0.016 µg/mL (≈ 0.0306 µM)
- MIC (Haemophilus influenzae): 0.063 µg/mL (≈ 0.12 µM)
- MIC (Staphylococcus aureus [2]): 4 µg/mL (≈ 7.64 µM)
- MIC (Escherichia coli): 2 µg/mL (≈ 3.82 µM)
- MIC (Klebsiella pneumoniae): 4 µg/mL (≈ 7.64 µM)
- MIC (Staphylococcus aureus [3]): 1 µg/mL (≈ 1.91 µM)
- MIC (Moraxella catarrhalis): 0.031 µg/mL (≈ 0.0592 µM)
- MIC (Streptococcus pneumoniae): 0.031 µg/mL (≈ 0.0592 µM)

Compound: C[C@@H](O)[C@H]1C(=O)N2C(C(=O)[O-])=C(c3cn4cnc(C(=O)c5ccc[n+](CC(=O)O)c5)c4s3)[C@H](C)[C@H]12
- MIC (Staphylococcus aureus [1]): 0.031 µg/mL (≈ 0.0624 µM)
- MIC (Haemophilus influenzae): 0.063 µg/mL (≈ 0.127 µM)
- MIC (Staphylococcus aureus [2]): 8 µg/mL (≈ 16.1 µM)
- MIC (Escherichia coli): 0.031 µg/mL (≈ 0.0624 µM)
- MIC (Klebsiella pneumoniae): 0.063 µg/mL (≈ 0.127 µM)
- MIC (Staphylococcus aureus [3]): 2 µg/mL (≈ 4.03 µM)
- MIC (Moraxella catarrhalis): 0.031 µg/mL (≈ 0.0624 µM)
- MIC (Streptococcus pneumoniae): 0.063 µg/mL (≈ 0.127 µM)

Compound: CC(=O)C[n+]1cccc(C(=O)c2ncn3cc(C4=C(C(=O)[O-])N5C(=O)[C@H]([C@@H](C)O)[C@H]5[C@H]4C)sc23)c1
- MIC (Staphylococcus aureus [1]): 0.016 µg/mL (≈ 0.0324 µM)
- MIC (Haemophilus influenzae): 0.063 µg/mL (≈ 0.127 µM)
- MIC (Staphylococcus aureus [2]): 4 µg/mL (≈ 8.09 µM)
- MIC (Escherichia coli): 0.125 µg/mL (≈ 0.253 µM)
- MIC (Klebsiella pneumoniae): 0.25 µg/mL (≈ 0.506 µM)
- MIC (Staphylococcus aureus [3]): 1 µg/mL (≈ 2.02 µM)
- MIC (Moraxella catarrhalis): 0.031 µg/mL (≈ 0.0627 µM)
- MIC (Streptococcus pneumoniae): 0.063 µg/mL (≈ 0.127 µM)

Compound: CCOC(=O)C[n+]1cccc(C(=O)c2ncn3cc(C4=C(C(=O)[O-])N5C(=O)[C@H]([C@@H](C)O)[C@H]5[C@H]4C)sc23)c1
- MIC (Staphylococcus aureus [1]): 0.016 µg/mL (≈ 0.0305 µM)
- MIC (Haemophilus influenzae): 0.063 µg/mL (≈ 0.12 µM)
- MIC (Staphylococcus aureus [2]): 8 µg/mL (≈ 15.3 µM)
- MIC (Escherichia coli): 0.031 µg/mL (≈ 0.0591 µM)
- MIC (Klebsiella pneumoniae): 0.063 µg/mL (≈ 0.12 µM)
- MIC (Staphylococcus aureus [3]): 2 µg/mL (≈ 3.81 µM)
- MIC (Moraxella catarrhalis): 0.031 µg/mL (≈ 0.0591 µM)
- MIC (Streptococcus pneumoniae): 0.063 µg/mL (≈ 0.12 µM)

Compound: C[C@@H](O)[C@H]1C(=O)N2C(C(=O)O)=C(c3cn4cnc(C(=O)c5cccs5)c4s3)[C@H](C)[C@H]12
- MIC (Staphylococcus aureus [1]): ≤ 0.008 µg/mL
- MIC (Haemophilus influenzae): 0.125 µg/mL (≈ 0.282 µM)
- MIC (Staphylococcus aureus [2]): 4 µg/mL (≈ 9.02 µM)
- MIC (Escherichia coli): 2 µg/mL (≈ 4.51 µM)
- MIC (Klebsiella pneumoniae): 4 µg/mL (≈ 9.02 µM)
- MIC (Staphylococcus aureus [3]): 0.031 µg/mL (≈ 0.0699 µM)
- MIC (Moraxella catarrhalis): 0.016 µg/mL (≈ 0.0361 µM)
- MIC (Streptococcus pneumoniae): 0.125 µg/mL (≈ 0.282 µM)

Compound: C[C@@H](O)[C@H]1C(=O)N2C(C(=O)O)=C(c3cn4cnc(C(=O)c5cnc6ccccc6c5)c4s3)[C@H](C)[C@H]12
- MIC (Staphylococcus aureus [1]): ≤ 0.008 µg/mL
- MIC (Haemophilus influenzae): 0.125 µg/mL (≈ 0.256 µM)
- MIC (Staphylococcus aureus [2]): 2 µg/mL (≈ 4.09 µM)
- MIC (Escherichia coli): 4 µg/mL (≈ 8.19 µM)
- MIC (Klebsiella pneumoniae): 8 µg/mL (≈ 16.4 µM)
- MIC (Staphylococcus aureus [3]): 0.016 µg/mL (≈ 0.0328 µM)
- MIC (Moraxella catarrhalis): 0.031 µg/mL (≈ 0.0635 µM)
- MIC (Streptococcus pneumoniae): 0.031 µg/mL (≈ 0.0635 µM)
